# Reference: PMC4674063, “Uncovering the Molecular Mechanism of Actions between Pharmaceuticals and Proteins on the AD Network” (PLoS ONE, 2015)
# Read-outs that look alike come from different tables or passages of the source.
# What was measured:
# NEP = NEP (Homo sapiens, UniProt P08473); experiment: Wet-lab test of inhibition of NEP; format: biochemical; design: inhibition rate / quenching efficiency: concentration or dose not given beside the values
# IDE = target: T1, IDE (Homo sapiens, UniProt P14735); experiment: Wet-lab test of inhibition of IDE; format: biochemical; conditions: for inhibition rate / quenching efficiency / IC50: binding to IDE; for IC50: computed value
# T1 sequence (P14735 1-1019): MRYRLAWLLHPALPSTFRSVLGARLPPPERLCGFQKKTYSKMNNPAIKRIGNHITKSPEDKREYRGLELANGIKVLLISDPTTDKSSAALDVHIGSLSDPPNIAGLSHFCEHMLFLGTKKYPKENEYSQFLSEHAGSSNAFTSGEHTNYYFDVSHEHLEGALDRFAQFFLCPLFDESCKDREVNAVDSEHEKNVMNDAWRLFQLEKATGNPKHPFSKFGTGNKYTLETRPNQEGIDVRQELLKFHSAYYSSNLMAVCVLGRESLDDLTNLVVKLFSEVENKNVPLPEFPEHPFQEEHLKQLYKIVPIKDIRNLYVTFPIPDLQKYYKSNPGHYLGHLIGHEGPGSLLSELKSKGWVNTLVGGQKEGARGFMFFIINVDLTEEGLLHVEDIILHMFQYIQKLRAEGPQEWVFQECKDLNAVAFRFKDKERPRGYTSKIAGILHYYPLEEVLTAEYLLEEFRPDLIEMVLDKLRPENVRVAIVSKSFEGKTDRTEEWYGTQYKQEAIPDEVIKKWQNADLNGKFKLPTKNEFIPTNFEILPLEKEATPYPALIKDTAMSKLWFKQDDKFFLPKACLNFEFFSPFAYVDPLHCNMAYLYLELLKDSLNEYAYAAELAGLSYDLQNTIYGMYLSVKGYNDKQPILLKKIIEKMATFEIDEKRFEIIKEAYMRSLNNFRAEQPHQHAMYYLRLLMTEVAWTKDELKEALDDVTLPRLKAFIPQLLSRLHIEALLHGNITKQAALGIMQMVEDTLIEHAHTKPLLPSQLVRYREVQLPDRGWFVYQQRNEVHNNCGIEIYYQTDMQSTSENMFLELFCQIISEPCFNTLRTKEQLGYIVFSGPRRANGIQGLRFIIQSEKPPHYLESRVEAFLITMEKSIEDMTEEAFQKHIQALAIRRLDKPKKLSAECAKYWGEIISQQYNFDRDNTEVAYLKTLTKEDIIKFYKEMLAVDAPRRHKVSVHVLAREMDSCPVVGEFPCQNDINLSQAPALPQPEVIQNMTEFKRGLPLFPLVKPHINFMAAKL
# [1] = cited from earlier work
# [2] = conclusion from both amiloride analogs
# Chain of NEP (P08473 whole entry): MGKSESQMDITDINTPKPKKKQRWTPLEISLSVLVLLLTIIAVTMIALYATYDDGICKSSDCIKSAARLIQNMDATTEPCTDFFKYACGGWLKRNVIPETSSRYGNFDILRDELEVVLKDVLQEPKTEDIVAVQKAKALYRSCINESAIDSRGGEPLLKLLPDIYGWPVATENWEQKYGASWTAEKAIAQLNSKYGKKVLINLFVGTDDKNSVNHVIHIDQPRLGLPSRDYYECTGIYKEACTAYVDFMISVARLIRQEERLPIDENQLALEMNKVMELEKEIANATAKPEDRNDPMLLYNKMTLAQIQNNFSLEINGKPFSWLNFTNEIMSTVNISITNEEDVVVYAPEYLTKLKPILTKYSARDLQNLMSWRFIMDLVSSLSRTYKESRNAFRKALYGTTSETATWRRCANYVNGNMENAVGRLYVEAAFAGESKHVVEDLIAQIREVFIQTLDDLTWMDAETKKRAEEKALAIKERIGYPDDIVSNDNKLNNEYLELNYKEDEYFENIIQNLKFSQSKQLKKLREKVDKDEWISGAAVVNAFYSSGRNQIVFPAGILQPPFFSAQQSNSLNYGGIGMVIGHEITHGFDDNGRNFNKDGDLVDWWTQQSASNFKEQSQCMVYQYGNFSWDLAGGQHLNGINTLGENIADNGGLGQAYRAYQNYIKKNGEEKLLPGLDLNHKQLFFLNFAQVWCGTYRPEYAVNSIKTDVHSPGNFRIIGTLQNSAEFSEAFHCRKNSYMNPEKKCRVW
smiles,measurement,setting,value
Cl.N=C(N)NC(=O)c1nc(Cl)c(N)nc1N.O.O [Amiloride HCl dihydrate],inhibition rate,NEP; binding to NEP,65.21%
same,quenching efficiency,NEP; binding to NEP,-6.64%
same,inhibition rate,IDE,95.02%
same,quenching efficiency,IDE,-6.64%
same,IC50,IDE,214 µM
"N=C(N)NC(=O)c1nc(Cl)c(N)nc1N [AMR, Amiloride]",inhibition of NEP (in words),NEP; [2],weakly inhibits NEP
same,inhibition of IDE (in words),IDE; [2],strongly inhibits IDE
"NC(=O)C1=CN([C@@H]2O[C@H](COP(=O)(O)OP(=O)(O)OC[C@H]3O[C@@H](n4cnc5c(N)ncnc54)[C@H](O)[C@@H]3O)[C@@H](O)[C@H]2O)C=CC1 [NAI, NADH]",crosses the BBB,[1],cross the BBB
"OCCN1C[C@H](O)[C@@H](O)[C@H](O)[C@H]1CO [MIG, Miglitol]",crosses the BBB,[1]; ref not given,cannot cross BBB
"CN(C)c1nc(N)c(C(=O)N=C(N)N)nc1Cl.Cl [5-(N,N-Dimethyl) amiloride hydrochloride]",inhibition rate,NEP; binding to NEP,80.96%
same,quenching efficiency,NEP; binding to NEP,54.77%
same,IC50,"NEP; binding to NEP, computed value",829 µM
same,inhibition rate,IDE,93.57%
same,quenching efficiency,IDE,54.77%
same,IC50,IDE,178 µM
"COc1ccc2c3c1O[C@H]1C[C@@H](O)C=C[C@@]31CCN(C)C2 [GNT, galantamine]",crosses the blood-brain barrier (BBB),[1],cross the blood-brain barrier
"Cc1c(C)c2c(c(C)c1O)CC[C@@](C)(CCC[C@H](C)CCC[C@H](C)CCCC(C)C)O2 [VIV, Vitamin E]",crosses the BBB,[1],cross the BBB
O=C(O)CNC(=O)C(CS)Cc1ccccc1 (racemic) [DL-Thiophan],inhibition rate,NEP; binding to NEP,102.01%
"Nc1c2c(nc3ccccc13)CCCC2 [THA, tacrine]",crosses the blood-brain barrier (BBB),[1]; in vivo,cross the blood-brain barrier
"C/C=C1\[C@H]2C=C(C)C[C@]1(N)c1ccc(=O)[nH]c1C2 [HUP, Huperzine A]",crosses the blood-brain barrier (BBB),[1]; in vivo,cross the blood-brain barrier
